Results from patent US11497819B2, “PSMA ligands for imaging and endoradiotherapy” (priority 2017, dated 2022).
“And” between values parts separate entries of the source, which are not always exact repeats. Equal entries are not always repeated. Where two headings read alike, the source gives them in different places.

Experiments:
[1] = tested on: LNCaP-tumor xenograft; experiment: Biodistribution in LNCaP-tumor xenograft bearing CB-17 SCID mice; type: in vivo
Procedure: All animal experiments were carried out in accordance with the general animal welfare regulations in Germany (Deutsches Tierschutzgesetz, approval #55.2-1-54-2532-71-13). For the tumor model, LNCaP cells (approx. 10^7 cells) were suspended in serum-free DMEM-F12 medium and Matrigel (1/1; v/v) (BD Biosciences, Germany) and inoculated onto the right shoulder of male, 6 to 8 weeks old CB-17 SCID mice (Charles River Laboratories, Sulzfeld, Germany). Animals were used after the tumor size reached 4 to 8 mm in diameter for experiments.

[2] = Lipophilicity, logP in n-octanol/PBS of radiolabeled PSMA inhibitors; type: physicochemical; settings: pH 7.4
Procedure: The radiolabeled PSMA inhibitor (0.5 to 1.0 MBq) dissolved in PBS (500 μL, pH=7.4), was added to n-octanol (500 μL) in a reaction vial (1.5 mL), which was rigorously vortexed for 3 min (n=6). For quantitative phase separation, the mixture was centrifuged at 6,000 g for 5 min (Biofuge 15, Heraus Sepatech, Osterode, Germany). The activity from samples of each phase (100 μL) were measured in a γ-counter to obtain the log P(o/w) value.

[3] = tested on: LNCaP cells; experiment: Externalization kinetics / cell retention in LNCaP cells; type: cell-based; settings: for in vitro tumor cell retention: 60 min incubation
Procedure: FIG. 2: Externalization kinetics of selected ^177Lu-labeled PSMA inhibitors from LNCaP cells. […] Then, the supernatant was removed and once washed with DMEM-solution (5% BSA, 37° C.). Afterwards, either A) only DMEM-solution (5% BSA) or B) blockade DMEM-solution (5% BSA, 10 μm 2-PMPA) were added for replacement. The total cellular internalized activity at t=0 min was corrected for non-specific binding (10 μm 2-PMPA) and normalized to 100%. All data are expressed as mean±SD (n=3).
Externalization kinetics of the radiolabeled PSMA inhibitors were determined using LNCaP cells, which were similarly prepared as described for the internalization assay. After an initial cell-washing step with DMEM-F12-solution (5% BSA), the cells were left to recondition for at least 15 min at 37° C. Subsequently, the LNCaP cells were incubated with the respective radiolabeled peptide (25 μL, 10.0 nm) at 37° C. for 60 min in a total volume of 250 μL in each well. After 60 min, the supernatant with the unbound free fraction was removed and measured in a γ-counter for the calculation of total added radioactivity. An acid wash step was avoided to warrant enzyme integrity during the following externalization and recycling study. To determine the recycling rate, fresh DMEM-F12-solution (250 μL, 5% BSA) was given to the cells to allow re-internalization. In contrast, re-internalization was inhibited by addition of DMEM-F12-solution containing 2-PMPA (225 μL DMEM-F12 (5% BSA) and 25 μL of 100 μm 2-PMPA-solution (PBS)). The cells were then incubated for 0, 20, 40 and 60 min at 37° C. Consequently, the supernatant was removed and the cells were washed with ice-cold HBSS (250 μL). The combination of the supernatant and the volume of the concomitant washing step with HBSS (200 μL) account for externalized radioligand at the investigated time point. Further, the cells were then washed with ice-cold 2-PMPA HBSS solution (250 μL, 10 μm) twice, combined and thus represented the fraction of membrane-bound radioligand. The determination of the internalized fraction was achieved by lysis as described for the internalization assay with NaOH (250 μL, 1.0 m). The activities of free, externalized, membrane-bound and internalized radioligand were quantified in a γ-counter.

[4] = tested on: LNCaP cells; experiment: Internalization into LNCaP cells, relative cellular uptake to ([^125I]I-BA)KuE; type: cell-based; settings: c = 1.0 nM ^177Lu-labeled inhibitor, 37° C., 60 min, corrected for non-specific binding (10 μM 2-PMPA), mean ± SD (n = 3)
Procedure: PSMA-positive LNCAP cells (300265; Cell Lines Service GmbH) were cultivated in Dulbecco modified Eagle medium/Nutrition Mixture F-12 (1/1) (DMEM-F12, Biochrom) supplemented with fetal calf serum (FCS) (10%, Biochrom) and kept at 37° C. in a humidified CO2 atmosphere (5%). One day (24 h±2 h) prior to all experiments with LNCaP cells, the cultivated cells were harvested using a mixture of trypsin/ethylendiaminetetraacetate (0.05%/0.02%) and PBS and centrifuged. After centrifugation, the supernatant was disposed and the cell pellet resuspended in culture medium. Afterwards, cells were counted with a hemocytometer (Neubauer) and seeded in 24-well plates.
Subsequent to the removal of the culture medium, the cells were washed once with DMEM-F12-solution (500 μL, 5% BSA) and left to equilibrate for at least 15 min at 37° C. in DMEM-F12-solution (200 μL, 5% BSA). Afterwards, each well was treated with either DMEM-F12-solution (25 μL, 5% BSA) or 2-PMPA-solution (25 μL, 100 μm) for blockade. […] The experiment was terminated by placing the 24-well plate on ice for 3 min and the consecutive removal of the medium. Each well was rinsed with HBSS (250 μL) and the fractions from these first two steps combined, representing the amount of free radioligand. Removal of surface bound activity was accomplished by incubation of the cells with ice-cold 2-PMPA-solution (250 μL, 10 μm in PBS) for 5 min and subsequent rinsing with ice-cold PBS (250 μL). The internalized activity was determined through incubation of the cells in NaOH (250 μL, 1.0 m) and the combination with the fraction of the subsequent washing step with again NaOH (250 μL, 1.0 m). Each experiment (control and blockade) was performed in triplicate for each time point. Free, surface bound and internalized activity was quantified in a γ-counter.

[5] = molecular target: T1, HSA (Homo sapiens, UniProt P02768); experiment: HSA binding on Chiralpak HSA column; type: in vitro ADME; settings: human, 0.5 mg/mL
T1 construct: purchased Daicel Chemical Industries / Chiral Technologies Europe (Illkirch, France)
Procedure: HSA binding experiments were performed as previously described. […] For each run, 10 μL of the solution containing the inhibitor was injected into the RP-HPLC system and the retention time measured. […] Non-linear regression was established with OriginPro 2016G.

[6] = 1 h p.i., ^177Lu-labeled, n = 4
[7] = 1 h p.i., ^177Lu-labeled, n = 4, listed as [^177Lu]PSMA I&T
[8] = 24 h p.i., ^177Lu-labeled, n = 4
[9] = male, CB-17 SCID, mouse, in vivo, 1 h
[10] = male, CB-17 SCID, mouse, in vivo, 24 h

T1 sequence (P02768 25-609): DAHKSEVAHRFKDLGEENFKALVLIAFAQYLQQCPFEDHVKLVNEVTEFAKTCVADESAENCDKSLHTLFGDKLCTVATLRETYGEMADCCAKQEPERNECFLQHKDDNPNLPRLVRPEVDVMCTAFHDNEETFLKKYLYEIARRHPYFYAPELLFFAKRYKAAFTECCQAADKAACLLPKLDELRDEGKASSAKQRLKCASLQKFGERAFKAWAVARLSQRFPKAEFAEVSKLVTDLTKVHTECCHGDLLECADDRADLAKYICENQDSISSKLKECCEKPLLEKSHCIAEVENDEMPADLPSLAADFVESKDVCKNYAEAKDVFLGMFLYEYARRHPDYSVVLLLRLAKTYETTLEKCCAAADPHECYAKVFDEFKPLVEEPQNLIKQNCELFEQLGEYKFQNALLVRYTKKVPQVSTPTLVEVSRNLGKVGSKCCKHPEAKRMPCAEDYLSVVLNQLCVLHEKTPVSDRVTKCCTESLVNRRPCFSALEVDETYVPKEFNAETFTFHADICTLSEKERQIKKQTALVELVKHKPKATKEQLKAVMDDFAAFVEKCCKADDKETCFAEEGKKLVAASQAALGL

O=C(O)CC[C@H](NC(=O)N[C@@H](CCCCNC(=O)CCCCCCC(=O)NCCCC[C@@H](NC(=O)[C@@H](Cc1ccccc1)NC(=O)[C@@H](Cc1ccc(O)c(I)c1)NC(=O)CCC(C(=O)O)N1CCN(CC(=O)O)CCN(CC(=O)O)CCN(CC(=O)O)CC1)C(=O)O)C(=O)O)C(=O)O (stereo partly shown) [PSMA I&T, DOTAGA-y(3-I)fk(Sub-KuE), reference compound]
adrenal gland [1, 6]: 6.25 ± 2.59 % ID/g
blood [1, 6]: 0.37 ± 0.10 % ID/g
bone [1, 6]: 0.14 ± 0.04 % ID/g
brain [1, 6]: 0.03 ± 0.01 % ID/g
heart [1, 6]: 0.58 ± 0.15 % ID/g
intestine [1, 6]: 0.59 ± 0.50 % ID/g
liver [1, 6]: 0.37 ± 0.10 % ID/g
lung [1, 6]: 1.32 ± 0.45 % ID/g
muscle [1, 6]: 0.18 ± 0.07 % ID/g
pancreas [1, 6]: 1.30 ± 1.39 % ID/g
spleen [1, 6]: 13.8 ± 4.59 % ID/g
stomach [1, 6]: 0.29 ± 0.06 % ID/g
kidney [1, 7]: 128.9±10.7 % ID/g and 128.90 ± 10.74 % ID/g
tumor [1, 7]: 4.7±1.0 % ID/g and 4.69±0.95 % ID/g
adrenal g. [1, 8]: 1.06 ± 0.24 % ID/g
blood [1, 8]: 0.012 ± 0.01 % ID/g
bone [1, 8]: 0.01 ± 0.01 % ID/g
brain [1, 8]: 0.02 ± 0.01 % ID/g
heart [1, 8]: 0.05 ± 0.03 % ID/g
intestine [1, 8]: 0.12 ± 0.06 % ID/g
liver [1, 8]: 0.05 ± 0.01 % ID/g
lung [1, 8]: 0.16 ± 0.03 % ID/g
muscle [1, 8]: 0.01 ± 0.01 % ID/g
pancreas [1, 8]: 0.05 ± 0.02 % ID/g
spleen [1, 8]: 1.94 ± 1.01 % ID/g
stomach [1, 8]: 0.05 ± 0.02 % ID/g
tumor ([1]; 24 h p.i., ^177Lu-labeled, n = 4, listed as [^177Lu]PSMA I&T): 4.06±1.12 % ID/g
logP ([2]; distribution coefficient in n-octanol/PBS, radiolabeled inhibitor, mean ± SD (n = 6), read-out: logP): -4.12 ± 0.11
in vitro tumor cell retention ([3]; ^177Lu-labeled): 62.8±0.4%
Internalization ([4]; listed as [^177Lu]PSMA I&T): 75.5±1.6%
Internalization ([4]; listed as [^nat/177Lu]PSMA I&T): 75.5 ± 1.6%

O=C(O)CC[C@H](NC(=O)N[C@@H](CCC(=O)N[C@H](CCCNC(=O)C[C@@H](NC(=O)c1cc(C(=O)O)cc(C(=O)O)c1)C(=O)NCCCC[C@@H](NC(=O)[C@@H](Cc1ccc2ccccc2c1)NC(=O)[C@@H](Cc1ccc(O)cc1)NC(=O)[C@H](CNC(=O)c1cc(C(=O)O)cc(C(=O)O)c1)NC(=O)CCC(C(=O)O)N1CCN(CC(=O)O)CCN(CC(=O)O)CCN(CC(=O)O)CC1)C(=O)O)C(=O)O)C(=O)O)C(=O)O (stereo partly shown) [PSMA-66, DOTAGA-Dap(TMA)y-2-nal-k(d[N^5-orn-C^4-EuE]-TMA)]
adrenal gland [1, 9]: 0.78 ± 0.07 % ID/g
blood [1, 9]: 0.50 ± 0.03 % ID/g
bone [1, 9]: 0.37 ± 0.13 % ID/g
brain [1, 9]: 0.02 ± 0.01 % ID/g
heart [1, 9]: 0.49 ± 0.06 % ID/g
intestine [1, 9]: 0.21 ± 0.03 % ID/g
liver [1, 9]: 0.32 ± 0.02 % ID/g
lung [1, 9]: 0.62 ± 0.12 % ID/g
muscle [1, 9]: 0.19 ± 0.07 % ID/g
pancreas [1, 9]: 0.15 ± 0.04 % ID/g
spleen [1, 9]: 1.93 ± 0.04 % ID/g
stomach [1, 9]: 0.28 ± 0.04 % ID/g
tumor/blood [1, 9]: 20.0
tumor/kidney [1, 9]: 0.09
tumor/muscle [1, 9]: 52.6
adrenal g. [1, 10]: 0.09 ± 0.09 % ID/g
blood [1, 10]: 0.003 ± 0.001 % ID/g
bone [1, 10]: 0.02 ± 0.01 % ID/g
brain [1, 10]: 0.01 ± 0.001 % ID/g
heart [1, 10]: 0.03 ± 0.007 % ID/g
intestine [1, 10]: 0.11 ± 0.07 % ID/g
kidney [1, 10]: 20.92 ± 2.51 % ID/g
liver [1, 10]: 0.14 ± 0.02 % ID/g
lung [1, 10]: 0.03 ± 0.007 % ID/g
muscle [1, 10]: 0.02 ± 0.006 % ID/g
pancreas [1, 10]: 0.02 ± 0.007 % ID/g
spleen [1, 10]: 0.09 ± 0.02 % ID/g
stomach [1, 10]: 0.07 ± 0.03 % ID/g
t/blood [1, 10]: 1910.0
t/kidney [1, 10]: 0.3
t/liver [1, 10]: 40.9
t/muscle [1, 10]: 286.5
logP [2]: -4.25 ± 0.14
in vitro tumor cell retention ([3]; ^177Lu-labeled): 90.1±3.5%
intracellular activity in the tumor cells ([3]; after 1 h, ^177Lu-labeled): highest intracellular activity in the tumor cells after 1 h
intracellular clearance ([3]; re-internalization blocked with 100 μM 2-PMPA-solution): lower than for all other investigated compounds
Internalization ([4]; listed as [^177Lu]PSMA-66): 297.8±2.0% and 297.8%
Internalization ([4]; listed as [^nat/177Lu]PSMA-66): 297.8 ± 2.0%
HSA (albumin binding) [5]: 64.4%
